# According to patent US20250107543A1, “TREATMENT OF AGRICULTURAL, FOOD AND RELATED PRODUCTS FOR ELIMINATING CONTAMINANTS AND ENCHANCING SHELF-LIFE” (priority 2022, published 2025):
# Columns and labels:
# [1] = tested on: yeast, mould; assay: Yeast & Mould Count of treated whole red chilli; details: whole red chilli 12 kg's
# Method: (§1) This experiment illustrates the treatment of aerobic micro-organisms, yeast, mould, coliform, E. coli, Salmonella and fat soluble metabolites contaminated whole red chilli.
# (§2) The data presented in Table-2 illustrate the efficacy of the present disclosure in detoxifying contaminated whole red chillies. […].
# (§3) The red chillies were exposed with Trioxygen for 2 minutes. The products were put under pressure of trioxygen gas for a span of 9 minutes to 26 minutes. Based on the commodity characteristics, the exposure of trioxygen gas was repeated 10 times. Trioxygen gas having a capacity 500 g/h was generated by the trioxygen generator (on site) of the system with a constant oxygen flow rate and delivered to the decontamination chamber through silicon tube. The whole red chillies were then treated to heated air.
# [2] = Pesticide residue in treated whole red chilli: Imidacloprid; details: whole red chilli 12 kg's, Trial 1; HOCL and Trioxygen simultaneously
# Excerpt: (§4) This experiment illustrates the treatment of whole red chilli contaminated with pesticide residues.
# (§5) The data presented in Table-6 illustrates the efficacy of the present disclosure in detoxifying contaminated whole red chillies. Sets of whole red chillies of 12 kg's contaminated with pesticides like Azoxystrobin, Imidacloprid Novaluron and Myclobutanil were used for the experiment. An inert gas (Nitrogen & Carbon-di-oxide) were introduced into the chamber filled with the material to drive out existing air and oxygen in the chamber. Pre-conditioning was carried out with HOCL and trioxygen being introduced simultaneously in decontamination chamber with faster decontamination process in the system with a shorter timeline protocol.
# (§6) The red chillies were exposed with HOCL and Trioxygen simultaneously for 2 minutes. The products were put under pressure of 2 bar of trioxygen gas for a span of 9 minutes to 26 minutes. Based on the commodity characteristics, the exposure of trioxygen gas was repeated 10 times. Trioxygen gas having a capacity 500 g/h was generated by the trioxygen generator (on site) of the system with a constant oxygen flow rate and delivered to the decontamination chamber through silicon tube. The whole red chillies were then treated to heated air.
# [3] = tested on: E. coli; assay: Detection of E. coli in treated whole red chilli; details: whole red chilli 12 kg's, Trial 3
# Method: as §1, §2, §3
# [4] = Pesticide residue in treated whole red chilli: Myclobutanil; details: whole red chilli 12 kg's, Trial 1; HOCL and Trioxygen simultaneously
# Excerpt: as §4, §5, §6
# [5] = tested on: weevils and weevil eggs; assay: Shelf-Life Assessment of Corn; set-up: key to Visual observation: Powder at the bottom of bag / Weevils/Insects / Visual observation: Pin holes on grain: ✓ Not observed; x Observed; details: for Visual observation: Pin holes on grain / Visual observation: Powder at the bottom of bag / Weevils/Insects: Treated sample
# Method: (§7) The data presented in Table-5 illustrates the efficiency of the system of the present disclosure in pre-conditioning and deactivation of weevils and weevil eggs results in delayed occurrence of insect infestation in grains.
# (§8) Grains such as Dry corn, Groundnut, Rice & Wheat were separately pre-conditioned and decontaminated in the system of the present disclosure. Grains were exposed to trioxygen gas for up to 5 minutes. The products were put under pressure of trioxygen gas for a span of 9 minutes to 26 minutes. Trioxygen gas having capacity 500 g/h was generated by the trioxygen generator of the system (on site) with a constant oxygen flow rate and delivered to the decontamination chamber through silicon tube. All products were treated with hot air and then analyzed for the presence of the weevils and weevil eggs the results obtained are summarized in Table-5.
# [6] = C17H12O6 content of treated groundnuts; details: groundnut
# Method: The data presented in Table-3 illustrates the efficiency of the system of the present disclosure in detoxifying contaminated groundnuts.
# Three sets of C17H12O6 contaminated 3 kg's, 60 kg's and 60 kg's of groundnuts were separately pre-conditioned and decontaminated in the system. In this case, groundnuts were pre-conditioned and exposed with trioxygen gas for up to 5 minutes. The products were put under pressure of trioxygen gas for a span of 9 minutes to 26 minutes. Based on the commodity characteristics, the exposure of trioxygen gas was repeated 15 times. Trioxygen gas having capacity 500 g/h was generated by the trioxygen generator of the system (on site) with a constant oxygen flow rate and delivered to the decontamination chamber through silicon tube. All 3 sets of products were heated and then analyzed for the presence of the contaminant and the results obtained are summarized in Table-3.
# [7] = Pesticide residue in treated whole red chilli: Novaluron; details: whole red chilli 12 kg's, Trial 1; HOCL and Trioxygen simultaneously
# Excerpt: as §4, §5, §6
# [8] = tested on: coliform; assay: Coliform Count of treated whole red chilli; details: whole red chilli 12 kg's
# Method: as §1, §2, §3
# [9] = tested on: weevils and weevil eggs; assay: Shelf-Life Assessment of Wheat; set-up: key to Visual observation: Pin holes on grain / Visual observation: Powder at the bottom of bag / Weevils/Insects: ✓ Not observed; x Observed; details: for Visual observation: Pin holes on grain / Visual observation: Powder at the bottom of bag / Weevils/Insects: Treated sample
# Method: as §7, §8
structure (smiles),measurement,setting,value
O=[O+][O-] [Trioxygen],"Yeast & Mould Count, % Reduction",[1]; Trial 1,73%
same,"Yeast & Mould Count, Results After Treatment","[1]; Trial 1, before treatment 1.57 × 10^7 cfu/g",4.18 × 10^6 cfu/g
same,"Yeast & Mold Count, % Reduction",[1]; Trial 2,83%
same,"Yeast & Mold Count, Results After Treatment","[1]; Trial 2, before treatment 1.7 × 10^7 cfu/g",2.9 × 10^6 cfu/g
same,"Yeast & Mold Count, % Reduction",[1]; Trial 3,99%
same,"Yeast & Mold Count, Results After Treatment","[1]; Trial 3, before treatment 3.36 × 10^7 cfu/g",1.87 × 10^5 cfu/g
same,"Imidacloprid, % Reduction",[2],40%
same,"Detection of E. coli, % Reduction",[3],100%
same,"Detection of E. coli, Results After Treatment",[3]; before treatment Present/25 g,Absent/25 g
same,"Myclobutanil, % Reduction",[4],100%
same,No weevil infestation in system treated samples up to,[5],up to 6 months
same,Treatment effective in delaying infestation up to,[5],up to 6 months
same,"Remarks on Weevils/Insects, Treated",[5]; Post 1.5 Months,No weevils/insects
same,"Remarks on Weevils/Insects, Treated",[5]; Post 2 Months,No weevils/insects
same,"Remarks on Weevils/Insects, Treated",[5]; Post 3 Months,No weevils/insects
same,"Remarks on Weevils/Insects, Treated",[5]; Post 5 Months,No weevils/insects
same,"Remarks on Weevils/Insects, Treated: cream coloured insect observed alive",[5]; Post 6 Months,1 cream coloured
same,"Remarks on Weevils/Insects, Treated: cream coloured insect observed alive",[5]; Post 7 Months,3 cream coloured
same,Visual observation: Pin holes on grain,[5]; 1.5 Months,✓
same,Visual observation: Powder at the bottom of bag,[5]; 1.5 Months,✓
same,Weevils/Insects,[5]; 1.5 Months,✓
same,Visual observation: Pin holes on grain,[5]; 2 Months,✓
same,Visual observation: Powder at the bottom of bag,[5]; 2 Months,✓
same,Weevils/Insects,[5]; 2 Months,✓
same,Visual observation: Pin holes on grain,[5]; 3 Months,✓
same,Visual observation: Powder at the bottom of bag,[5]; 3 Months,✓
same,Weevils/Insects,[5]; 3 Months,✓
same,Visual observation: Pin holes on grain,[5]; 5 Months,✓
same,Visual observation: Powder at the bottom of bag,[5]; 5 Months,✓
same,Weevils/Insects,[5]; 5 Months,✓
same,Visual observation: Pin holes on grain,[5]; 6 Months,✓
same,Visual observation: Powder at the bottom of bag,[5]; 6 Months,✓
same,Weevils/Insects,[5]; 6 Months,x
same,Visual observation: Pin holes on grain,[5]; 7 Months,✓
same,Visual observation: Powder at the bottom of bag,[5]; 7 Months,✓
same,Weevils/Insects,[5]; 7 Months,x
same,"Number of weevils in treated sample compared to those in control, times less",[5]; at month 7,5 times
same,"Number of weevils in treated sample compared to those in control, times less",[5]; at month 8,1.5 times
same,Number of weevils in treated sample compared to those in control,[5]; at month 9,No difference
same,"C17H12O6, % Reduction","[6]; Sr. No. 1, 3 kg's",100%
same,"C17H12O6, % Reduction","[6]; Sr. No. 2, 60 kg's",93%
same,"C17H12O6, % Reduction","[6]; Sr. No. 3, 60 kg's",64%
same,"Novaluron, % Reduction",[7],100%
same,"Coliform Count, % Reduction",[8]; Trial 1,93%
same,"Coliform Count, Results After Treatment","[8]; Trial 1, before treatment 2.7 × 10^4 cfu/g",1.82 × 10^3 cfu/g
same,"Coliform Count, % Reduction",[8]; Trial 3,100%
same,"Coliform Count, Results After Treatment","[8]; Trial 3, before treatment 5.45 × 10^3 cfu/g",<10 cfu/g
same,No weevil infestation in system treated samples up to,[9],up to 3 months
same,Treatment effective in delaying infestation up to,[9],up to 6 months
same,"Remarks on Weevils/Insects, Treated",[9]; Post 1.5 Months,No weevils/insects
same,"Remarks on Weevils/Insects, Treated",[9]; Post 2 Months,No weevils/insects
same,"Remarks on Weevils/Insects, Treated",[9]; Post 3 Months,No weevils/insects
same,"Remarks on Weevils/Insects, Treated: cream/buff colour insect (3 mm) observed alive",[9]; Post 5 Months,2 cream/buff colour
same,"Remarks on Weevils/Insects, Treated: cream/buff colour insect (3 mm) observed alive",[9]; Post 6 Months,3 cream/buff colour
same,"Remarks on Weevils/Insects, Treated: cream/buff colour insect (3 mm) observed alive",[9]; Post 7 Months,3 cream/buff colour
same,Visual observation: Pin holes on grain,[9]; 1.5 Months,✓
same,Visual observation: Powder at the bottom of bag,[9]; 1.5 Months,✓
same,Weevils/Insects,[9]; 1.5 Months,✓
same,Visual observation: Pin holes on grain,[9]; 2 Months,✓
same,Visual observation: Powder at the bottom of bag,[9]; 2 Months,✓
same,Weevils/Insects,[9]; 2 Months,✓
same,Visual observation: Pin holes on grain,[9]; 3 Months,✓
same,Visual observation: Powder at the bottom of bag,[9]; 3 Months,✓
same,Weevils/Insects,[9]; 3 Months,✓
same,Visual observation: Pin holes on grain,[9]; 5 Months,✓
same,Visual observation: Powder at the bottom of bag,[9]; 5 Months,✓
same,Weevils/Insects,[9]; 5 Months,x
same,Visual observation: Pin holes on grain,[9]; 6 Months,✓
same,Visual observation: Powder at the bottom of bag,[9]; 6 Months,✓
same,Weevils/Insects,[9]; 6 Months,x
same,Visual observation: Pin holes on grain,[9]; 7 Months,✓
same,Visual observation: Powder at the bottom of bag,[9]; 7 Months,✓
same,Weevils/Insects,[9]; 7 Months,x
same,"Number of weevils in treated sample compared to those in control, times less",[9]; at month 5,4 times
